What is called Ki is a measure of affinity in units of concentration, obtained from inhibition or displacement. A low value points to tighter binding.

Data on one compound can be found in patent US20090275099A1 (priority 2004, published 2009).

Experiment [1] deals with migration inhibitory factor (MIF). Put plainly: gene expression profiling of Ramos cells (Affymetrix U133A). Format: cell-based, human. The protocol:
In vitro testing with Ramos cells to determine the changes in gene expression (at the level of mRNA) induced by Bz-423 was performed by culturing cells at a density of 500,000 cells per ml. Solvent control (DMSO, final concentration 0.1% V/V]), Bz-423, or Bz-OMe (10 μM) was added to cells. After 4 h, cells were harvested and RNA prepared using Trizol Reagent (#15596-018, Life Technologies, Rockville, Md.) and the RNeasy Maxi Kit (# 75162, Qiagen, Valencia, Calif.) according to manufacturers protocols. Single stranded cDNA was synthesized by reverse transcription using poly (A) RNA present in the starting total RNA sample. Single stranded cDNA was converted into double stranded cDNA and then in vitro transcription carried out in the presence of biotinylated UTP and CTP to produce biotin-labeled cRNA. cRNA was fragmented in the presence of Mg2+, and hybridized to the human genome U133A Genechip array (Affymetrix). Hybridization results were quantified using a GeneArray scanner and analysis carried out according to the instructions provided by Affymetrix. […]
The data were analyzed to detect genes changes Bz treatment according to the criteria that the log-transformed mean signal changed at least four-fold in treated compared to vehicle control samples and that the coefficient of variance for control values (n=4) was less than 10%. […]

The target in experiment [2] is mitochondrial F1F0-ATPase (Bos taurus, UniProt P13621+P32876). Put plainly: biochemical. Details: species or system bovine. Conditions: for Ki: synthesis.
A further experiment has as its system Ramos cells. Put plainly: antiproliferation, 72 h, 10% FBS. The following applies: Homo sapiens, read-out: ED50 for antiproliferation. The experiment is classed as cell-based. On the procedure: (§1) Like most 1,4-benzodiazepines, Bz-423 binds strongly to bovine serum albumin (BSA), which reduces the effective concentration of drug free in solution. For example, in tissue culture media containing 10% (v/v) fetal bovine serum (FBS), ca. 99% of the drug is bound to BSA. Therefore, cell culture cytotoxicity assays are conducted in media with 2% FBS to reduce binding to BSA and increase the free [Bz-423]. Under these conditions, the dose response-curve is quite sharp such that there is a limited concentration range at which Bz-423 is only partly effective. Since some benzodiazepines are known to have anti-proliferative properties, the effect of Bz-423 at concentrations <ED50 were carefully analyzed and observed that in addition to inducing apoptosis, Bz-423 prevented cell growth after 3 d in culture. In these low serum conditions, the cytotoxic and anti-proliferative effects overlapped making it difficult to study each effect independently. […] While higher amounts of drug may also block proliferation, it caused apoptosis well before the effects on proliferation could be observed.
(§2) To confirm the decrease in cell number relative to control cells after 3 d of treatment is due to decreased proliferation and not cell death balanced by proliferation, in addition to cell counting, cell divisions were studied. PKH-67 is a fluorescent probe that binds irreversibly to cell membranes and upon cell division is partitioned equally between the daughter cells, making it possible to quantify cell division by flow cytometry. Ramos cells stained with PKH67 and treated with Bz-423 had fewer cell divisions at sub-cytotoxic concentrations which confirmed that the decrease in cell number was due to anti-proliferative affects and not cell death. To determine if Bz-423 induced anti-proliferation was specific to Ramos cells, cell counting and cell cycle experiments were done in other B cell lines and cell lines derived from solid tumors.

The subject of experiment [3] is Ramos clones transfected to overexpress Bcl-2. As to the kind of experiment: antiproliferation, 72 h, 10% FBS. The experiment is classed as cell-based. The following applies: Homo sapiens, Bcl-2, 72 h, read-out: ED50 for antiproliferation. The protocol:
as §1, §2

The test system of experiment [4] is Ramos clones transfected to overexpress Bcl-xL. Put plainly: antiproliferation, 72 h, 10% FBS. Format: cell-based. The following applies: Homo sapiens, read-out: ED50 for antiproliferation. The protocol:
as §1, §2

Experiment [5] concerns malignant B cell line CA46. Put plainly: antiproliferation, 72 h, 10% FBS. The experiment is classed as cell-based. The following applies: Homo sapiens, CA46, 72 h, read-out: ED50 for antiproliferation. The protocol:
as §1, §2

For experiment [6], the system named is malignant B cell line Raji. Put plainly: antiproliferation, 72 h, 10% FBS. Format: cell-based. The following applies: Homo sapiens, read-out: ED50 for antiproliferation. The protocol:
as §1, §2

In experiment [7] the test system is neuroblastoma cell line IMR-32. As to the kind of experiment: antiproliferation, 72 h, 10% FBS. The experiment is classed as cell-based. Conditions: Homo sapiens, IMR-32, 72 h, read-out: ED50 for antiproliferation. On the procedure: as §1, §2
Experiment [8] has as its system neuroblastoma cell line Lan-1. Put plainly: antiproliferation, 72 h, 10% FBS. The experiment is classed as cell-based. Conditions: LAN1, Lan-1, 72 h, read-out: ED50 for antiproliferation. On the procedure: as §1, §2
For experiment [9], the system named is neuroblastoma cell line SHEP-1. As to the kind of experiment: antiproliferation, 72 h, 10% FBS. Format: cell-based. The following applies: SH-EP1, SHEP-1, 72 h, read-out: ED50 for antiproliferation. On the procedure:
as §1, §2

Experiment [10] concerns ovarian cells with null p53 (SKOV3). As to the kind of experiment: antiproliferation, 72 h, 10% FBS. Conditions: Homo sapiens, SK-OV-3, SKOV3, 72 h, read-out: ED50 for antiproliferation. The experiment is classed as cell-based. The protocol: as §1, §2

`CN1C(=O)C(Cc2ccc3ccccc3c2)N=C(c2ccc(O)cc2)c2cc(Cl)ccc21` (stereo not drawn) [Bz-423]: the “induction of MIF” value in experiment [1] was “approximately 10 fold”. The EC50 in experiment [2] (ATPase activity EC50 (μM), Synthesis, bovine SMPs) turned out to be 5.5 µM; in the experiment with Ramos cells it was 10.7 µM; in [3] it was 11.9 µM; in [4], 13.7 µM; in experiment [5], 13.4 µM; in experiment [6], 12.9 µM. For the same compound, the EC50 in experiment [7] worked out at 18 µM; in experiment [8], 13.7 µM; in [9], 15.9 µM; in experiment [10], 18.2 µM. In addition, the Ki was determined as 6.9 ± 0.3 µM in experiment [2] (Ki (E), three-dimensional fit, Bz-423); 10 ± 1 µM in [2] (Ki (ES), three-dimensional fit, Bz-423); 7.2 ± 0.3 µM in experiment [2] (competitive inhibition constant (Ki(E)), fit of dependence of Vmax/Km on Bz-423 concentration); 11 ± 2 µM in experiment [2] (uncompetitive inhibition constant (Ki(ES)), fit of dependence of Vmax on Bz-423 concentration).
